Laboratory results as given in article PMC6858927 (Investigational new drugs, 2019).
Read-outs that look alike come from different tables or passages of the source.

[1] = Cohort A: 200mg, cytarabine, Daunorubicin (n=5), Total
[2] = Cohort A: 200mg, cytarabine, Daunorubicin (n=5), grade 1&2
[3] = Cohort A: 200mg, cytarabine, Daunorubicin (n=5), grade 3+
[4] = Cohort B Dose 2: 400mg, Decitabine (n=2), Total
[5] = Cohort B Dose 2: 400mg, Decitabine (n=2), grade 1&2
[6] = Cohort B Dose 2: 400mg, Decitabine (n=2), grade 3+

C1=C/COCc2cc(ccc2OCCN2CCCC2)Nc2nccc(n2)-c2cccc(c2)COC/1 [Pacritinib, 11-(2-pyrrolidin-1-yl-ethoxy)-14,19-dioxa-5,7,26-triaza-tetracyclo[19.3.1.1(2,6). 1(8,12)]heptacosa-1(25),2(26),3,5,8,10,12(27),16,21,23-decaene]
3 (60): LYMPHOCYTE COUNT DECREASED, patients (%) [1] | NAUSEA, patients (%) [1] | DIARRHEA, patients (%) [2] | FATIGUE, patients (%) [2] | NAUSEA, patients (%) [2] | ANEMIA, patients (%) [3] | FEBRILE NEUTROPENIA, patients (%) [3]
Four: ELECTROCARDIOGRAM QT CORRECTED INTERVAL PROLONGED, patients (%) (Cohort A: 200mg, cytarabine, Daunorubicin (n=5), grade 1&2, listed as pacritinib)
2 (40): HYPOXIA, patients (%) [1] | MUCOSITIS ORAL, patients (%) [1] | NEUTROPHIL COUNT DECREASED, patients (%) [1] | RASH MACULO-PAPULAR, patients (%) [1] | RASH, patients (%) [1] | RESPIRATORY FAILURE, patients (%) [1] | HYPOALBUMINEMIA, patients (%) [2] | MUCOSITIS ORAL, patients (%) [2] | RASH, patients (%) [2] | HYPOXIA, patients (%) [3] | LYMPHOCYTE COUNT DECREASED, patients (%) [3] | NEUTROPHIL COUNT DECREASED, patients (%) [3] | RESPIRATORY FAILURE, patients (%) [3]
4 (80): PRURITUS, patients (%) [1] | WHITE BLOOD CELL DECREASED, patients (%) [1] | ELECTROCARDIOGRAM QT CORRECTED INTERVAL PROLONGED, patients (%) [2] | PRURITUS, patients (%) [2] | WHITE BLOOD CELL DECREASED, patients (%) [3]
5 (100): PLATELET COUNT DECREASED, patients (%) [1] | PLATELET COUNT DECREASED, patients (%) [3]
1 (20): LUNG INFECTION, patients (%) [1] | PLEURAL EFFUSION, patients (%) [1] | ACTIVATED PARTIAL THROMBOPLASTIN TIME PROLONGED, patients (%) [2] | DYSPNEA, patients (%) [2] | EDEMA LIMBS, patients (%) [2] | HYPERGLYCEMIA, patients (%) [2] | HYPERTENSION, patients (%) [2] | HYPOKALEMIA, patients (%) [2] | LYMPHOCYTE COUNT DECREASED, patients (%) [2] | PLEURAL EFFUSION, patients (%) [2] | RASH MACULO-PAPULAR, patients (%) [2] | HYPERTENSION, patients (%) [3] | HYPOPHOSPHATEMIA, patients (%) [3] | LUNG INFECTION, patients (%) [3] | RASH MACULO-PAPULAR, patients (%) [3]
1 (50): CONSTIPATION, patients (%) [4] | DYSPNEA, patients (%) [4] | HYPERGLYCEMIA, patients (%) [4] | HYPERTENSION, patients (%) [4] | HYPOKALEMIA, patients (%) [4] | LYMPHOCYTE COUNT DECREASED, patients (%) [4] | NAUSEA, patients (%) [4] | NEUTROPHIL COUNT DECREASED, patients (%) [4] | PLATELET COUNT DECREASED, patients (%) [4] | VOMITING, patients (%) [4] | WHITE BLOOD CELL DECREASED, patients (%) [4] | ANEMIA, patients (%) [5] | CONSTIPATION, patients (%) [5] | DYSPNEA, patients (%) [5] | HYPERGLYCEMIA, patients (%) [5] | HYPERTENSION, patients (%) [5] | VOMITING, patients (%) [5] | ANEMIA, patients (%) [6]
2 (100): ANEMIA, patients (%) [4]
0: VOMITING, patients (%) [1] | ANEMIA, patients (%) [2] | ANOREXIA, patients (%) [2] | CONSTIPATION, patients (%) [2] | FEBRILE NEUTROPENIA, patients (%) [2] | HYPOPHOSPHATEMIA, patients (%) [2] | HYPOXIA, patients (%) [2] | LUNG INFECTION, patients (%) [2] | NEUTROPHIL COUNT DECREASED, patients (%) [2] | PLATELET COUNT DECREASED, patients (%) [2] | RESPIRATORY FAILURE, patients (%) [2] | VOMITING, patients (%) [2] | WHITE BLOOD CELL DECREASED, patients (%) [2] | ACTIVATED PARTIAL THROMBOPLASTIN TIME PROLONGED, patients (%) [3] | ANOREXIA, patients (%) [3] | CONSTIPATION, patients (%) [3] | DIARRHEA, patients (%) [3] | DYSPNEA, patients (%) [3] | EDEMA LIMBS, patients (%) [3] | ELECTROCARDIOGRAM QT CORRECTED INTERVAL PROLONGED, patients (%) [3] | FATIGUE, patients (%) [3] | HYPERGLYCEMIA, patients (%) [3] | HYPOALBUMINEMIA, patients (%) [3] | HYPOKALEMIA, patients (%) [3] | MUCOSITIS ORAL, patients (%) [3] | NAUSEA, patients (%) [3] | PLEURAL EFFUSION, patients (%) [3] | PRURITUS, patients (%) [3] | RASH, patients (%) [3] | VOMITING, patients (%) [3] | ACTIVATED PARTIAL THROMBOPLASTIN TIME PROLONGED, patients (%) [4] | ANOREXIA, patients (%) [4] | DIARRHEA, patients (%) [4] | EDEMA LIMBS, patients (%) [4] | ELECTROCARDIOGRAM QT CORRECTED INTERVAL PROLONGED, patients (%) [4] | FATIGUE, patients (%) [4] | FEBRILE NEUTROPENIA, patients (%) [4] | HYPOALBUMINEMIA, patients (%) [4] | HYPOPHOSPHATEMIA, patients (%) [4] | HYPOXIA, patients (%) [4] | LUNG INFECTION, patients (%) [4] | MUCOSITIS ORAL, patients (%) [4] | PLEURAL EFFUSION, patients (%) [4] | PRURITUS, patients (%) [4] | RASH MACULO-PAPULAR, patients (%) [4] | RASH, patients (%) [4] | RESPIRATORY FAILURE, patients (%) [4] | ACTIVATED PARTIAL THROMBOPLASTIN TIME PROLONGED, patients (%) [5] | ANOREXIA, patients (%) [5] | DIARRHEA, patients (%) [5] | EDEMA LIMBS, patients (%) [5] | ELECTROCARDIOGRAM QT CORRECTED INTERVAL PROLONGED, patients (%) [5] | FATIGUE, patients (%) [5] | FEBRILE NEUTROPENIA, patients (%) [5] | HYPOALBUMINEMIA, patients (%) [5] | HYPOKALEMIA, patients (%) [5] | HYPOPHOSPHATEMIA, patients (%) [5] | HYPOXIA, patients (%) [5] | LUNG INFECTION, patients (%) [5] | LYMPHOCYTE COUNT DECREASED, patients (%) [5] | MUCOSITIS ORAL, patients (%) [5] | NAUSEA, patients (%) [5] | NEUTROPHIL COUNT DECREASED, patients (%) [5] | PLATELET COUNT DECREASED, patients (%) [5] | PLEURAL EFFUSION, patients (%) [5] | PRURITUS, patients (%) [5] | RASH MACULO-PAPULAR, patients (%) [5] | RASH, patients (%) [5] | RESPIRATORY FAILURE, patients (%) [5] | WHITE BLOOD CELL DECREASED, patients (%) [5] | ACTIVATED PARTIAL THROMBOPLASTIN TIME PROLONGED, patients (%) [6] | ANOREXIA, patients (%) [6] | CONSTIPATION, patients (%) [6] | DIARRHEA, patients (%) [6] | DYSPNEA, patients (%) [6] | EDEMA LIMBS, patients (%) [6] | ELECTROCARDIOGRAM QT CORRECTED INTERVAL PROLONGED, patients (%) [6] | FATIGUE, patients (%) [6] | FEBRILE NEUTROPENIA, patients (%) [6] | HYPERGLYCEMIA, patients (%) [6]
